From patent US20250134875A1, “FORMULATIONS OF ALK-5 KINASE INHIBITORS AND USES THEREOF” (Thirona Bio, Inc., priority 2023, published 2025)
≈ marks a conversion by molar mass, not a printed value.

Experiment: Solubility of Compound 1 in solvents
Format: physicochemical
Text: Tables 2 and 3 provide the solubility of the exemplary ALK-5 kinase inhibitor Compound 1 in various solvents.

solubility (Cycolmethicone NF, oil or lipid): 190 µg/mL (≈ 0.62 mM) | solubility (DMSO, organic solvent or mixture): 83700 µg/mL (≈ 273 mM) | solubility (Dimethicone 100 CST, oil or lipid): 110 µg/mL (≈ 0.359 mM) | solubility (PEG 400, organic solvent or mixture): 43900 µg/mL (≈ 143 mM) | solubility (PPG-15 stearyl ether, oil or lipid): 4870 µg/mL (≈ 15.9 mM) | solubility (Transcutol (DEGEE), organic solvent or mixture): 115000 µg/mL (≈ 376 mM) | solubility (acetone, organic solvent or mixture): 38300 µg/mL (≈ 125 mM) | solubility (benzyl alcohol, organic solvent or mixture): > 300000 µg/mL | solubility (diethyl sebacate, oil or lipid): 13100 µg/mL (≈ 42.6 mM) | solubility (diisopropyl adipate, oil or lipid): 50500 µg/mL (≈ 165 mM) | solubility (ethanol, organic solvent or mixture): 30800 µg/mL (≈ 101 mM) | solubility (hexylene glycol, organic solvent or mixture): 50200 µg/mL (≈ 164 mM) | solubility (isopropyl myristate, oil or lipid): 3450 µg/mL (≈ 11.3 mM) | solubility (medium chain triglycerides, oil or lipid): 5310 µg/mL (≈ 17.3 mM) | solubility (mineral oil, oil or lipid): 540 µg/mL (≈ 1.76 mM) | solubility (octyldodecanol, oil or lipid): 5370 µg/mL (≈ 17.5 mM) | solubility (organic solvent or mixture, Propylene Glycol (PG)): 23700 µg/mL (≈ 77.4 mM) | solubility (phenethyl alcohol, organic solvent or mixture): > 300000 µg/mL | solubility (phosphate buffer, pH 6.5, aqueous buffer): 20 µg/mL (≈ 0.0653 mM) | solubility (propylene carbonate, organic solvent or mixture): 24100 µg/mL (≈ 78.7 mM) | solubility (sodium citrate buffer, pH 3, aqueous buffer, Sod.Citrate buffer (pH3)): 2190 µg/mL (≈ 7.15 mM) | solubility (sodium citrate buffer, pH 4, aqueous buffer, Sod.Citrate buffer (pH4)): 290 µg/mL (≈ 0.946 mM) | solubility (sodium citrate buffer, pH 5, aqueous buffer, Sod.Citrate buffer (pH5)): 70 µg/mL (≈ 0.228 mM) | solubility (water): 20 µg/mL (≈ 0.0653 mM)
SMILES: Cc1cccc(-n2ncc(C)c2-c2cc3cnccc3s2)n1 [Compound 1]
